From publication PMC5652740, “Inhibition of HIV-1 infection in humanized mice and metabolic stability of protein phosphatase-1-targeting small molecule 1E7-03” (Oncotarget, 2017)
pIC50: −log10 of the molar value. Values joined by “and” are separate entries in the source; they are usually repeats but may differ in a detail not shown here. Equal entries are not always repeated. Where two headings read alike, the source gives them in different places.

How the values were obtained:
HIV-1 env and gag mRNA = HIV-1 env and gag mRNA expression by real-time RT-PCR in infected CEM T cells; format: cell-based; conditions: 10 μM 1E7-03, DP1, DP3; 5 μM AZT, 3TC; in words
Description: For quantitative analysis of HIV-1 RNA, CEM T cells were infected with HIV-1-LUC-G virus. Cells were treated with 10 μM 1E7-03, 10 μM DP1, 10 μM DP3, 5 μM AZT or 5 μM 3TC and control cells were untreated or treated with DMSO. Total RNA was isolated using Trizol Reagent (Invitrogen, Carlsbad, CA) according to the manufacturer's protocol. Total RNA (100 ng) was reverse transcribed to cDNA using Superscript™ RT-PCR kit (Invitrogen, Carlsbad, CA). Hexamers and oligo-dT were used as primers. For real-time PCR analysis, cDNA was amplified using Roche LightCycler 480 (Roche Diagnostics) and SYBR Green1 Master mix (Roche Diagnostics). PCR was run for 45 cycles and each cycle included denaturation at 95°C for 10 seconds, annealing at 60°C for 10 seconds, and extension at 72°C for 10 seconds. Quantification of env and gag was carried using 18S RNA as a normalization standard. Quantification of housekeeping genes, β-actin and RSP13 was carried relative to 18S RNA. Mean Cp values were determined and ΔΔCt method was used to calculate relative expression levels. Unpaired t-test was used to test statistical significance.
The following primer sequences were used: env, forward - […], reverse-[…]; gag, forward- […], reverse- […]; β-actin, forward- […], reverse-[…]; RSP13, forward- […], reverse- […]; and 18SrRNA, forward- […], reverse- […].

[1] = Stability in human liver microsomes; format: in vitro ADME; conditions: 1 hr; for % of Total (Liver microsomes, Human): 10 μM 1E7-03, 37°C, 1E7-03 remaining and DP1, DP3 formed
Description: (§1) The metabolic stability of 1E7-03 was also investigated using a pool of human and mouse liver microsomes (HMS9PL, MSS9PL, Thermo Scientific) following manufacturer's instructions. In brief, incubations were conducted at 37 ± 1°C in mixtures containing 5 μl of human or mouse liver microsomes (20 mg/ml), 183 μl of potassium phosphate buffer (pH 7.4, 100 mM) and 2 μl of 1E7-03 (10 mM sock solution of 1E7-03 in DMSO was diluted into 1 mM by PBS). The mixture was pre-incubated for 5 min, then initiated the reactions with the addition of 10 μl 20 mM NADPH (Sigma Aldrich). The reactions were terminated after 1 hr incubation by adding 800 μl cold acetone. The mixture was kept at 4°C for 30 min, and the precipitated protein was removed by centrifugation (13, 000 g for 10 min at 4°C). A 250 μl aliquot of supernatant was transferred to a clean test tube and evaporated to dryness using a SpeedVac concentrator. The residue was reconstituted in 50 μl of acetonitrile with 0.1% FA for LC/FT-MS analysis.

HIV-1-LUC-G = assay: Single round HIV-1 replication, luciferase readout in CEM T cells; format: cell-based; conditions: Human immunodeficiency virus 1, T-cell
Description: CEM T cells were infected with VSVG-pseudotyped pNL4-3.Luc.R-E-virus (HIV-1-LUC-G) prepared as previously described and cultured in 96-well white plates ( 1.25 × 10^6 cells/ml, 100 μl/well) at 37°C and 5% CO2. The cells were treated with serial dilutions of the compounds or vehicle (DMSO) and incubated overnight. At 24 hrs post infection, 100 μl of reconstituted luciferase buffer (Luclite Kit, Perkin Elmer) was added to each well, incubated for 10 min and luminescence was measured using Glo-Max Microplate Multimode reader (Promega).

CEM T cells = assay: Cell viability, trypan blue-based assay; conditions: 24 h; for effect on cell viability: up to 180 μM, in words
Description: CEM T cells were cultured in 96-well plates at 37°C and incubated with the indicated compound concentrations for 24 hrs. Cell viability was determined using trypan blue-based assay.

[2] = Stability in mouse liver microsomes; format: in vitro ADME; conditions: 10 μM 1E7-03, 37°C, 1 hr; 1E7-03 remaining and DP1, DP3 formed
Description: as §1

[3] = 1E7-03 degradation in mouse plasma; format: in vitro ADME; conditions: for % of 1E7-03 degraded: mouse plasma, 10 μM
Description: A 10 μl aliquots from each sample were loaded to a LC-20AD nano HPLC system (Shimadzu Corporation, Columbia, MD, USA) coupled to LTQ XL Orbitrap mass spectrometer (Thermo Fisher Scientific) with the installed Xcalibur software (version 2.0.7, Thermo Fisher Scientific). Liquid chromatography was carried out on an in-house made nano-HPLC column (Polymicro Technologies Inc., Phoenix, AZ, USA) packed with reverse phase PolySulfoethyl A, 5μM, 200 Å (PolyLC Inc., Columbia, MD, USA). Mobile phase A was 0.1% formic acid in water and mobile phase B - 0.1% formic acid in acetonitrile. The elution was performed at a flow rate of 600 nl/min over 40 min using a multisegment linear gradient of mobile phase B as follows: 0–6.02 min, 1% B; 6.02–6.11 min, 1–2% B; 6.11–20 min, 2−80% B; 20–25 min, 80% B; 25–30 min, 80–85% B; 30–31 min, […]; 31–40 min, 2% B (v/v). The Orbitrap was operated under data-dependent acquisition mode. The spray voltage, capillary temperature and capillary voltage were set to 2.0 kV, 200 °C, and 39.5 V, respectively. Full-scan mass spectra were acquired in Orbitrap over 150−1500 m/z with a resolution of 30 000, followed by MS^n scans by CID activation mode. The precursor ions were fragmented with collision energy of 18 with activation Q of 0.25 and an activation time of 30 ms. Dynamic exclusion was enabled with a repeat count of 2, a repeat duration of 15 s, exclusion duration of 20 s, an exclusion list size of 50. The mass spectrometer was also operated in NL scan of m/z 18.01, 45.05, 71.03 and 72.02 and MRM mode. The MRM transitions were controlled by a segmented program in order to short the scan cycle and increase sensitivity.
1E7-03 dissolved in DMSO (10 mM stock solution) was mixed with mouse plasma (Sigma-Aldrich), guinea pig plasma (Sigma-Aldrich), ferret plasma (BioreclamationIVT), monkey plasma (courtesy of Binhua Ling, PhD, Tulane University) and human plasma (collected from heathy volunteer by the Center for Sickle Cell Disease at Howard University) to the final concentration of 10 μM and incubated at 37°C. Aliquots were collected at different time points for up to 24 hrs. The resulting sample (60 μl) was mixed with 240 μl of cold acetone, vortexed for 2 min, kept at –20°C for 30 min, and then the precipitated protein was removed by centrifugation at 13,000 × g for 5 min. The supernatant was transferred to a clean test tube and evaporated to dryness using a SpeedVac concentrator. The residue reconstituted in 60 μl of acetonitrile for LC/FT-MS analysis. All experiments were run parallel in triplicates.

[4] = read-out: One round HIV-1 infection IC50, CEM T cells, HIV-1-LUC-G, Figure 4A
[5] = read-out: One round HIV-1 infection IC50, CEM T cells, HIV-1-LUC-G, Figure 7D

SMILES | HIV-1 env mRNA expression (HIV-1 env and gag mRNA) | HIV-1 gag mRNA expression (HIV-1 env and gag mRNA) | % of Total (Liver microsomes, Human) [1] [%] | % of 1E7-03 degraded and converted into DP1 ([1]; human liver microsomes) [%] | pIC50 (HIV-1-LUC-G; [4]) | pIC50 (HIV-1-LUC-G; [5]) | viability reduction (CEM T cells; highest tested 180 μM) | % of Total (Liver microsomes, Mouse) [2] | stability in mice and mouse plasma ([3]; in words) | % of 1E7-03 degraded ([3]; 37°C, 2 hrs) [%] | % of 1E7-03 degraded ([3]; 37°C, 4 hrs) | effect on cell viability (CEM T cells) | time at which DP1 levels reached their maximum ([3]; 10 μM 1E7-03 in mouse plasma, 37°C) [h] | level of degradation product in mouse plasma ([3]; 10 μM 1E7-03 in mouse plasma, 37°C, up to 24 hrs)
CCNC(=O)NC(=O)C(C)OC(=O)c1c2c(nc3ccccc13)/C(=C/c1ccc(OC)c(OC)c1)CC2 (centres unmarked) [1E7-03] | significantly reduced | significantly reduced | 59.39 | 39 | 5.77 | 5.70 | about 30% | 91% and 90.61% | not stable | 40 | over 85% | – | – | –
COc1ccc(/C=C2\CCc3c2nc2ccccc2c3C(=O)OC(C)C(=O)O)cc1OC (centres unmarked) [DP1] | not affected | not affected | 39.34 | – | 4.77 | – | – | 8.36% | – | – | – | no effect | 2 | –
COc1ccc(/C=C2\CCc3c2nc2ccccc2c3C(=O)O)cc1OC [DP3] | not affected | not affected | 1.27 | – | < 3.74 | – | – | 1.03% | – | – | – | no effect | – | low levels
COc1ccc(/C=C2\CCCc3c2nc2ccccc2c3C(=O)OC(C)C(=O)OC(C)(C)C)cc1OC (centres unmarked) [DP1-07] | – | – | – | – | – | < 4.18 | – | – | – | – | – | – | – | –
